Laboratory results from the kinase profiling compilation of Christmann-Franck et al. (2016).
Values joined by “and” are separate entries in the source; they are usually repeats but may differ in a detail not shown here. Identical values can stand only once.

Experiments:
Experiment in all cases: radiometric filter-binding kinase assay, Kinase HotSpot
Conditions in all cases: compound 0.5 µM; ATP 10 µM
[1] = molecular target: CSNK1A1 (human) (UniProt P48729)
[2] = molecular target: MARK3 (human) (UniProt P27448)
[3] = molecular target: SRPK3 (human) (UniProt Q9UPE1)
[4] = molecular target: JAK3 JH1 JH2 (human) (UniProt P52333)
[5] = molecular target: CAMK1D (human) (UniProt Q8IU85)
[6] = molecular target: NTRK3 (human) (UniProt Q16288)
[7] = molecular target: FGFR3 (human) (UniProt P22607)
[8] = molecular target: DYRK2 (human) (UniProt Q92630)
[9] = molecular target: NTRK1 (human) (UniProt P04629)
[10] = molecular target: MINK1 (human) (UniProt Q8N4C8)
[11] = molecular target: PRKD1 (human) (UniProt Q15139)
[12] = molecular target: MET (human) (UniProt P08581)
[13] = molecular target: NLK (human) (UniProt Q9UBE8)
[14] = molecular target: MAPKAPK5 (human) (UniProt Q8IW41)
[15] = molecular target: PTK2 (human) (UniProt Q05397)
[16] = molecular target: PRKD2 (human) (UniProt Q9BZL6)
[17] = molecular target: GRK4 (human) (UniProt P32298)
[18] = molecular target: NEK1 (human) (UniProt Q96PY6)
[19] = molecular target: MAP3K3 (human) (UniProt Q99759)
[20] = molecular target: MAPK8 (human) (UniProt P45983)
[21] = molecular target: NEK11 (human) (UniProt Q8NG66)
[22] = molecular target: BRSK2 (human) (UniProt Q8IWQ3)
[23] = molecular target: TBK1 (human) (UniProt Q9UHD2)
[24] = molecular target: CAMK2G (human) (UniProt Q13555)
[25] = molecular target: NEK7 (human) (UniProt Q8TDX7)
[26] = molecular target: EPHB3 (human) (UniProt P54753)
[27] = molecular target: PNCK (human) (UniProt Q6P2M8)
[28] = molecular target: PRKG1 (human) (UniProt Q13976)
[29] = molecular target: PRKCZ (human) (UniProt Q05513)
[30] = molecular target: DYRK1B (human) (UniProt Q9Y463)
[31] = molecular target: ACVR1 (human) (UniProt Q04771)
[32] = molecular target: MST4 (human) (UniProt Q9P289)
[33] = molecular target: MAPK12 (human) (UniProt P53778)
[34] = molecular target: DDR2 (human) (UniProt Q16832)
[35] = molecular target: HCK (human) (UniProt P08631)
[36] = molecular target: PDGFRA (human) (UniProt P16234)
[37] = molecular target: SLK (human) (UniProt Q9H2G2)
[38] = molecular target: EPHA2 (human) (UniProt P29317)
[39] = molecular target: RPS6KA1 KD1 KD2 (human) (UniProt Q15418)
[40] = molecular target: CAMK1G (human) (UniProt Q96NX5)
[41] = molecular target: HIPK1 (human) (UniProt Q86Z02)
[42] = molecular target: RPS6KB1 (human) (UniProt P23443)

HCK (human), sequence (P08631 whole entry, looked up): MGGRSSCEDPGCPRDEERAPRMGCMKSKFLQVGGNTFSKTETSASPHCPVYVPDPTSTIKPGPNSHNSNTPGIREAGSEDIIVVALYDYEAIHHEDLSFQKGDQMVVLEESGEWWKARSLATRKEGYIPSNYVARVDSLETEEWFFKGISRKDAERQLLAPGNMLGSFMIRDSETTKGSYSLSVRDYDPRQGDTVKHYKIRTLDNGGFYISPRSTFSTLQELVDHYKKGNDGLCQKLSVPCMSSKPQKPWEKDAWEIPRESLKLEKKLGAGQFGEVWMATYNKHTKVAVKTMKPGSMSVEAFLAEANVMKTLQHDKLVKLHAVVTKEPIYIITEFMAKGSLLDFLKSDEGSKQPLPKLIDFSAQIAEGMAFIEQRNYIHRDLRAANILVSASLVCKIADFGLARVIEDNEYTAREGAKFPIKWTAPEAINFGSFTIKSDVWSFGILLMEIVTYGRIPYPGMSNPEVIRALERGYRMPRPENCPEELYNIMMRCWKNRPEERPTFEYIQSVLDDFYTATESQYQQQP
PNCK (human), sequence (Q6P2M8 whole entry, looked up): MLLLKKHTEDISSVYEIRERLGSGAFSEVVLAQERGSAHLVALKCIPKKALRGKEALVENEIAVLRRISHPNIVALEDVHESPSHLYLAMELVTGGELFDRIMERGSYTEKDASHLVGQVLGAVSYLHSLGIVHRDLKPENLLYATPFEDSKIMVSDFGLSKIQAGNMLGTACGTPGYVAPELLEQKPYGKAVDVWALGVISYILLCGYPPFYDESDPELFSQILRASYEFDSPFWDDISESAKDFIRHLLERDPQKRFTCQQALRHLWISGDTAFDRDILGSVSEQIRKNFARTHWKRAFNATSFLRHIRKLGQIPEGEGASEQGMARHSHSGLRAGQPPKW
JAK3 JH1 JH2 (human), sequence (P52333 whole entry, looked up): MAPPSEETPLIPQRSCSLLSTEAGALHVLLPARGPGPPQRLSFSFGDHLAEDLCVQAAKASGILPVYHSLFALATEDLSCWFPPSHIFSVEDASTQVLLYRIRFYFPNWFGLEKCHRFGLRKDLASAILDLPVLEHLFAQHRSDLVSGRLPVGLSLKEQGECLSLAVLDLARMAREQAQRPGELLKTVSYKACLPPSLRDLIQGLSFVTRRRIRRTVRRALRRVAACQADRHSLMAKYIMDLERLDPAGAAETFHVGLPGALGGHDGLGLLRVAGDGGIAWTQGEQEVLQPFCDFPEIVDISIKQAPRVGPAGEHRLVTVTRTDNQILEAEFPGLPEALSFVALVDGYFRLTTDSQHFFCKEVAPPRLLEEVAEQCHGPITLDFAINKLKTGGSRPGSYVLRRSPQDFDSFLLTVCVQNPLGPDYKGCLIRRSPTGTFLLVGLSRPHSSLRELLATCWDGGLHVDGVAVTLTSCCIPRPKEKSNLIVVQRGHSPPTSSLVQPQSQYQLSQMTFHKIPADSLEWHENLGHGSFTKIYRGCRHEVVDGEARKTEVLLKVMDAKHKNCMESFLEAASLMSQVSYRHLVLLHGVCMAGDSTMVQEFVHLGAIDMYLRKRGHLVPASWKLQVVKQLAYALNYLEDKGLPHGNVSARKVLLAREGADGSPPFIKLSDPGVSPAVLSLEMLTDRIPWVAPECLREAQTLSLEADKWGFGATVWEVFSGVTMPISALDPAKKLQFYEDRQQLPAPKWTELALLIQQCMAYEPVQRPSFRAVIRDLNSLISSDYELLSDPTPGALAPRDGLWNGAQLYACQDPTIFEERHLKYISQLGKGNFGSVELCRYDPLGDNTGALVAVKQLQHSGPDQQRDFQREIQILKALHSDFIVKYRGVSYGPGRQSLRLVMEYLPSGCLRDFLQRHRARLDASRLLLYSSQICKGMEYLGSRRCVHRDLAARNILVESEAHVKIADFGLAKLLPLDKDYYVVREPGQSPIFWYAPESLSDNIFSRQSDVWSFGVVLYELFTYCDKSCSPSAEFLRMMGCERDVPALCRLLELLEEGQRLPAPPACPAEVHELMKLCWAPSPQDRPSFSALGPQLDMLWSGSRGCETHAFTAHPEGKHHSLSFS
DYRK1B (human), sequence (Q9Y463 whole entry, looked up): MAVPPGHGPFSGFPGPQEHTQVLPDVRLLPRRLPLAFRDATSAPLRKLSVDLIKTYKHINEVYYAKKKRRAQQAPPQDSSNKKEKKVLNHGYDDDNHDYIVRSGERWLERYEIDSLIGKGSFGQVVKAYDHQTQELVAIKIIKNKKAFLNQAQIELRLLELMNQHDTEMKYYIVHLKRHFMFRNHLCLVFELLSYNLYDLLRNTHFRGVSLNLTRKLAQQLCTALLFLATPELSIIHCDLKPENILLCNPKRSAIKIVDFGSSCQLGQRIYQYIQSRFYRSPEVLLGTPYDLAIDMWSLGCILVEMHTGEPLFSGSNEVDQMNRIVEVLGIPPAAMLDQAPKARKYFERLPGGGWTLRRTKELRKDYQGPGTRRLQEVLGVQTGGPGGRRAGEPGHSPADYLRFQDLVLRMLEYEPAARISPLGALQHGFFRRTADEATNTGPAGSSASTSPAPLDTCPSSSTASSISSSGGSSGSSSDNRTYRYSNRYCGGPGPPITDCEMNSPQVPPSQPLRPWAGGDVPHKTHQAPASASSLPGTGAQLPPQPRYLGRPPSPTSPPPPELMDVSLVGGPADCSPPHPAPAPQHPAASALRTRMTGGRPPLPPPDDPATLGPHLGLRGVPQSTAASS
MINK1 (human), sequence (Q8N4C8 whole entry, looked up): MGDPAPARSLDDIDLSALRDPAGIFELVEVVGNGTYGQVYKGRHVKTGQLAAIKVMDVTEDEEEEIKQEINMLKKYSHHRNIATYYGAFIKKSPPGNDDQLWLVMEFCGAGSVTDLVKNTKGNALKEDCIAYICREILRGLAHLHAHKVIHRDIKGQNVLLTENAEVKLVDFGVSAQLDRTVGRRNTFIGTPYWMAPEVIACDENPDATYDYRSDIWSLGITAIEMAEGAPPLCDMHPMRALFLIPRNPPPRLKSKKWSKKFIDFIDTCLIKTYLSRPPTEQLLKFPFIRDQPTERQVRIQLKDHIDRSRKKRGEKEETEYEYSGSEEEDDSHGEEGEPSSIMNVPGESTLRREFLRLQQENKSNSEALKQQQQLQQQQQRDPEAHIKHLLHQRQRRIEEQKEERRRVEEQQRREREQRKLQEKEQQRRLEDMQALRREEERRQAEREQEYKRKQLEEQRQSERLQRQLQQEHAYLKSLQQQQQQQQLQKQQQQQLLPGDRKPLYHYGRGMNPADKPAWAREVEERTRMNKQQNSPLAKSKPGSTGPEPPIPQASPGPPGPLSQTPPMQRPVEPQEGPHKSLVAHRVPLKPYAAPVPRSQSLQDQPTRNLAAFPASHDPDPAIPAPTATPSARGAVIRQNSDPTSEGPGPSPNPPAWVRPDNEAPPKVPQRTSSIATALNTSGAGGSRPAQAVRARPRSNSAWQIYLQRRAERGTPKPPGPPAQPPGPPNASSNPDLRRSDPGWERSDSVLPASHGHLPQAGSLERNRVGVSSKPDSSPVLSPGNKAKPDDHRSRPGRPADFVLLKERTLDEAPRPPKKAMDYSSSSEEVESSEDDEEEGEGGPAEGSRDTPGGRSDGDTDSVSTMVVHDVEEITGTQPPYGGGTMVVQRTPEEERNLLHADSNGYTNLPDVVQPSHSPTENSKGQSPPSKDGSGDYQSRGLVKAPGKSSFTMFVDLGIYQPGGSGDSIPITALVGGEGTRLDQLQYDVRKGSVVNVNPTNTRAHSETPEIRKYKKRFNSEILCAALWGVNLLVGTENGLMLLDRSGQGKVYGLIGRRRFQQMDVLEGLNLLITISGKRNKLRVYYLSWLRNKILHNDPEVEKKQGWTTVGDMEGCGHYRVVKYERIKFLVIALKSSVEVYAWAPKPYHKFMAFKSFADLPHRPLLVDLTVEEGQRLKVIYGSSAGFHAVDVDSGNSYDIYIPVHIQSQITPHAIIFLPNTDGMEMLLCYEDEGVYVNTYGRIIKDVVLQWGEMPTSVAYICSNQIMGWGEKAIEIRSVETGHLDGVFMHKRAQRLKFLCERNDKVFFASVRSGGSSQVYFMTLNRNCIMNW
PRKG1 (human), sequence (Q13976 whole entry, looked up): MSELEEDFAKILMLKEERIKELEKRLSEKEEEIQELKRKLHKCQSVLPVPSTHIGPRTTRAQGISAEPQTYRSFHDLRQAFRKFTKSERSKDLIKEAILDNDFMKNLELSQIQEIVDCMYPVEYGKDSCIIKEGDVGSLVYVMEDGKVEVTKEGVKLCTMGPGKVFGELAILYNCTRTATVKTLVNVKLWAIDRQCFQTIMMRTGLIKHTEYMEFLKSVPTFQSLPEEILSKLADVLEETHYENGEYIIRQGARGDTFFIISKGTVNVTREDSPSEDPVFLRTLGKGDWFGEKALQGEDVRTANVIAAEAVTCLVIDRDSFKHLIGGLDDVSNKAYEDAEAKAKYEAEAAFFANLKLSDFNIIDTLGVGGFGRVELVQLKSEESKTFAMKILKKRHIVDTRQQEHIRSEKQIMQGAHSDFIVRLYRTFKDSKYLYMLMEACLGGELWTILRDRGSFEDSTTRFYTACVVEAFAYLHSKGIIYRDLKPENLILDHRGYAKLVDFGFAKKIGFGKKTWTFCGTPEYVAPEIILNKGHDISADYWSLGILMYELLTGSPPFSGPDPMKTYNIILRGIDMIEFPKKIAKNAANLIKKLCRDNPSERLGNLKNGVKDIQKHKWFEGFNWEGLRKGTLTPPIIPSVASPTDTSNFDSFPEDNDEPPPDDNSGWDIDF
MAPK8 (human), sequence (P45983 whole entry, looked up): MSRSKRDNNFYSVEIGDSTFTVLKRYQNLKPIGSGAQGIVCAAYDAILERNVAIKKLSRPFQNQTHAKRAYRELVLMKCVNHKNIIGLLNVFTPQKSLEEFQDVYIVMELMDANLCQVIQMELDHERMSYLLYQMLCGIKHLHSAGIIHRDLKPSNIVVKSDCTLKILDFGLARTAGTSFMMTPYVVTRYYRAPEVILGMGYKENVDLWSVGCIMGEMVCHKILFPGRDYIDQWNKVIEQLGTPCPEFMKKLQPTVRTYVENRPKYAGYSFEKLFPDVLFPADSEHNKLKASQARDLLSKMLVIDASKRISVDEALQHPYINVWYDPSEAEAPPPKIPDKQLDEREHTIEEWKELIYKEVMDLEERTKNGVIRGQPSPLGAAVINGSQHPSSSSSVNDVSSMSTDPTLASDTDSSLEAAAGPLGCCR

`Cc1cccc(-c2nc(C(C)(C)C)[nH]c2-c2ccc3c(c2)OCO3)n1` was tested, and the residual activity [1] was 96.5%, the residual activity [2] was 73.9% and the residual activity [3] was 95.1%. It also gave a residual activity [4] of 92.6%, a residual activity [5] of 102% and a residual activity [6] of 92.4%. The residual activity [7] was 96.6%, the residual activity [8] was 108% and the residual activity [9] was 96.5%. The residual activity [10] was 98.4%, the residual activity [11] was 92.3% and the residual activity [12] was 82.7%. It also gave a residual activity [13] of 87.9%, a residual activity [14] of 96.1% and a residual activity [15] of 98.1%. It also gave a residual activity [16] of 93.6%, a residual activity [17] of 101% and a residual activity [18] of 78.9%. It also gave a residual activity [19] of 120%, a residual activity [20] of 95.7% and a residual activity [21] of 90.3%. It also gave a residual activity [22] of 99.3%, a residual activity [23] of 91.9% and a residual activity [24] of 85.5%. For the same compound, the residual activity [25] was 106%, the residual activity [26] was 103% and the residual activity [27] was 101%. For the same compound, the residual activity [28] was 74.6% and 91%, the residual activity [29] was 87.9% and the residual activity [30] was 99.6%. It also gave a residual activity [31] of 96.4%, a residual activity [32] of 95.5% and a residual activity [33] of 95.7%. The residual activity [34] was 98.3%, the residual activity [35] was 90.7% and the residual activity [36] was 94.1%. For the same compound, the residual activity [37] was 108%, the residual activity [38] was 99.2% and the residual activity [39] was 96.4%. The residual activity [40] was 98.7%, the residual activity [41] was 101% and the residual activity [42] was 95.9%.

With `COc1ccc(S(=O)(=O)N(CCO)c2ccccc2CN(C)C/C=C/c2ccc(Cl)cc2)cc1` the residual activity [1] was 99.3%, the residual activity [2] was 102% and the residual activity [3] was 97.3%. For the same compound, the residual activity [4] was 97%, the residual activity [5] was 103% and the residual activity [6] was 95.3%. The residual activity [7] was 70.1%, the residual activity [8] was 87.5% and the residual activity [9] was 110%. The residual activity [10] was 98.1%, the residual activity [11] was 100% and the residual activity [12] was 98.2%. The residual activity [13] was 101%, the residual activity [14] was 100% and the residual activity [15] was 104%. The residual activity [16] was 99.8%, the residual activity [17] was 94% and the residual activity [18] was 104%. The residual activity [19] was 99.8%, the residual activity [20] was 104% and the residual activity [21] was 105%. It also gave a residual activity [22] of 103%, a residual activity [23] of 97.1% and a residual activity [24] of 98.6%. For the same compound, the residual activity [25] was 93.4%, the residual activity [26] was 92.8% and the residual activity [27] was 99.8%. The residual activity [28] was 93.2% and 94.7%, the residual activity [29] was 100% and the residual activity [30] was 104%. For the same compound, the residual activity [31] was 90.6%, the residual activity [32] was 105% and the residual activity [33] was 98.9%. The residual activity [34] was 96.8%, the residual activity [35] was 97.8% and the residual activity [36] was 102%. It also gave a residual activity [37] of 103%, a residual activity [38] of 104% and a residual activity [39] of 108%. For the same compound, the residual activity [40] was 101%, the residual activity [41] was 106% and the residual activity [42] was 103%.

In the case of `COc1ccc2c(c1)c(C1=C(c3c[nH]c4ccccc34)C(=O)NC1=O)cn2CCCN(C)C`, the residual activity [1] is reported as 62.3%, the residual activity [2] is reported as 92.2% and the residual activity [3] is reported as 89.5%. It also gave a residual activity [4] of 138%, a residual activity [5] of 73.3% and a residual activity [6] of 54.9%. The residual activity [7] was 87.5%, the residual activity [8] was 92.4% and the residual activity [9] was 83.1%. For the same compound, the residual activity [10] was 78.6%, the residual activity [11] was 68.8% and the residual activity [12] was 85.6%. For the same compound, the residual activity [13] was 87.9%, the residual activity [14] was 98.1% and the residual activity [15] was 88.2%. It also gave a residual activity [16] of 92.3%, a residual activity [17] of 92.8% and a residual activity [18] of 94.7%. It also gave a residual activity [19] of 82.8%, a residual activity [20] of 80% and a residual activity [21] of 91.6%. The residual activity [22] was 61.3%, the residual activity [23] was 90.7% and the residual activity [24] was 91.1%. The residual activity [25] was 99.1%, the residual activity [26] was 97% and the residual activity [27] was 103%. The residual activity [28] was 79.4% and 99.5%, the residual activity [29] was 78.2% and the residual activity [30] was 80%. It also gave a residual activity [31] of 98%, a residual activity [32] of 40.4% and a residual activity [33] of 84.8%. It also gave a residual activity [34] of 101%, a residual activity [35] of 111% and a residual activity [36] of 85.2%. It also gave a residual activity [37] of 69.4%, a residual activity [38] of 91.3% and a residual activity [39] of 16%. The residual activity [40] was 95%, the residual activity [41] was 77.7% and the residual activity [42] was 19.7%.
